In US20190345087A1, “BIO-STABLE C[…] AND METHODS FOR ENHANCING THEIR PHYSIOLOGICAL CONCENTRATION” (Teewinot Technologies Limited, priority 2016, published 2019):
Converted amounts (≈) assume the structure as drawn.

Tests used:
[1] = S9 Intrinsic Clearance Assay; type: in vitro ADME, Human
Procedure: (§1) CBD methyl ether and CBD difluoromethyl ether were synthesized using a synthetic protocol described above and the identities of the desired ether products were confirmed by nuclear magnetic resonance spectroscopy as well as HPLC-MS. CBD methyl and/or CBD difluoromethyl ethers were incubated in individual eppendorf tubes in the following mediums: (a) simulated gastric fluid (SGF) with and without pepsin; (b) microsomal extract; (c) S9 fraction (hepatic); (d) Plasma; (e) Teorell-Stenhagen Buffer at pH 3.5, 4.5, 5.5, 6.5, 7.5, and 8.5; and (f) simulated intestinal fluid (SIF) with and without pancreatin. Each incubation mixture contained up to 0.5% of an organic solvent. DMSO is the organic solvent when SGF and Teorell-Stenhagen Buffer was used and acetonitrile is the organic solvent for incubation mixtures in microsomal extract, S9 fraction, and plasma. The concentration of CBD methyl and/or CBD difluoromethyl ether is 10 μM for stability studies in SGF and Teorell-Stenhagen Buffer. However, the concentration of CBD methyl and/or CBD difluoromethyl ether is 1 μM for stability studies in microsomal extract, S9 fraction, and plasma.
(§2) Stability studies were performed by incubating CBD methyl ether and/or CBD difluoromethyl ether at 37 ° C. in the desired medium. Aliquots were taken at fixed intervals of time, typically at 0, 5, 10, 15, 30, and 45 minutes, or at fixed intervals of 1 h, 1.5 h, 2 h, 4 h, 6 h, 8 h, 24 h, and 48 hours. At each interval of time, two aliquots of each sample were collected. Each aliquot was extracted with ethyl acetate. The ethyl acetate layer was evaporated using a stream of nitrogen gas and the resulting residue was dissolved in 1:1 mixture of 0.1% aqueous HOAc and acetonitrile and analyzed by reverse-phase HPLC-MS.
The stability of CBD methyl ether and CBD difluoromethyl ether in the hepatic S9 fraction is illustrated in Table 3. Both the methyl and difluoromethyl ethers were reasonably stable in S9 fraction with half-lives for de-etherification being about 5 hours for the methyl ether and about 3 hours for the difluoromethyl ether.
Intrinsic clearance (CLint) is clearance of drug by the livers if the drug is not bound to serum proteins or dependent on blood flow for delivery to the livers. Intrinsic clearance (CLint) is influenced by the affinity of the drug for its metabolizing liver enzyme and the number of enzymes present. CLint is subject to saturation and governed by Michaelis-menten (non-linear) elimination kinetics. Intrinsic clearance can be constant at low concentration, but progressively decreases as enzyme sites become saturated. Drugs with a strong affinity for their metabolizing enzymes or for which there are a large number of enzymes would be more efficiently extracted by the liver and thus, have a high extraction ratio (EH).
The hepatic extraction ratio EH is a good measure of expected first-pass metabolic clearance from liver (typical first pass after oral administration). The hepatic extraction ratio (Eh) is represented as follows:
Hepatic clearance (CLH) is the volume of blood that is cleared of drug per unit time by the liver, and QH is the rate of blood flow to the liver.
The hepatic extraction ratio EH is particularly useful for separating compounds into low/medium/high metabolic stability categories. Unlike in vitro intrinsic microsomal clearance (CLint), EH is species-nonspecific, because in its calculation species differences like liver weight, body weight, liver blood flow, etc. are normalized out, so EH values can be directly compared across species.

[2] = Microsomal Intrinsic Clearance Assay; type: in vitro ADME, Human
Procedure: as §1, §2
In vitro intrinsic microsomal clearance studies were performed to understand the metabolic fate of CBD ethers, as well as to identify metabolites produced by the degradation of the inventive CBD ethers.
The liver is the most important site of drug metabolism in the body. Approximately 60% of marketed compounds are cleared by hepatic CYP-mediated metabolism. See Drug Aletab. Dispos., 27(11) (1999) 1350. Liver microsomes are a subcellular fraction of hepatocytes, and they contain membrane bound drug metabolizing enzymes, Microsomes can be used to determine the in vitro intrinsic clearance of a compound. The use of species-specific microsomes can be used to enable an understanding of interspecies differences in drug metabolism.

[3] = Chemical Stability Assay - Teorell-Stenhagen Buffer; type: physicochemical; conditions: for Teorell-Stenhagen Buffer pH 3.5 t1/2 / Teorell-Stenhagen Buffer pH 4.5 t1/2 / Teorell-Stenhagen Buffer pH 5.5 t1/2 / Teorell-Stenhagen Buffer pH 6.5 t1/2 / Teorell-Stenhagen Buffer pH 7.5 t1/2 / Teorell-Stenhagen Buffer pH 8.5 t1/2: 10 μM, 0.5% DMSO, 20° C.
Procedure: as §1
as §2, with “Stability studies were performed by incubating CBD methyl ether and/or CBD difluoromethyl ether at 37 ° C. in the desired medium.” left out

[4] = Plasma Stability Assay; type: in vitro ADME; conditions: 1 μM, 37 ° C.
Procedure: as §1, with “The concentration of CBD methyl and/or CBD difluoromethyl ether is 10 μM for stability studies in SGF and Teorell-Stenhagen Buffer. However, the concentration of CBD methyl and/or CBD difluoromethyl ether is 1 μM for stability studies in microsomal extract, S9 fraction, and plasma.” left out
Stability studies were performed by incubating CBD methyl ether and/or CBD difluoromethyl ether at 37 ° C. in the desired medium. […] The ethyl acetate layer was evaporated using a stream of nitrogen gas and the resulting residue was dissolved in 1:1 mixture of 0.1% aqueous HOAc and acetonitrile and analyzed by reverse-phase HPLC-MS.
The methyl and difluoromethyl ethers of CBD were stable to degradation in plasma. The half-life of degradation as measured by LC-MS for both ethers was greater than 400 minutes.

[5] = Solubility Assay - PBS; type: physicochemical; conditions: for solubility in phosphate buffered saline / Solubility (μM) in PBS 7.4: PBS pH 7.4; for Solubility (μM) in PBS 7.4 / Solubility (μM) in T-S 7.5: λ 280 nm; for Solubility (μM) in T-S 7.5: Teorell-Stenhagen buffer pH 7.5
[6] = Stability in simulated gastric fluid (SGF) with and without pepsin and simulated intestinal fluid (SIF) with and without pancreatin; conditions: for SGF t1/2: SGF with pepsin; for SGF t1/2 / SGF No Pepsin t1/2: pH 1.2; for SGF t1/2 / SGF No Pepsin t1/2 / SIF t1/2 / SIF No Pancreatin t1/2: 10 μM, 0.5% DMSO, 37° C.; for SGF No Pepsin t1/2: SGF without pepsin; for SIF t1/2: SIF with pancreatin; for SIF t1/2 / SIF No Pancreatin t1/2: pH 6.8; for SIF No Pancreatin t1/2: SIF without pancreatin
[7] = pediatric epilepsy patients receiving CBD orally; cited from earlier work
[8] = 1 μM, protein 1.25 mg/mL, pH 7.4, 37° C
[9] = 1 μM, microsomal protein 1 mg/mL, pH 7.4, 37° C.
[10] = 1 μM, protein 1.25 mg/mL, pH 7.4, 37° C, NADPH, UDPGA, PAPS

Row | Compound | Human S9 EH (hepatic extraction ratio) [1, 8] | HLM EH (hepatic extraction ratio) [2, 9] | Human S9 CLint [1, 10] | Human S9 t1/2 [1, 10] | half-life for de-etherification in S9 fraction ([1]; hepatic S9 fraction) | Teorell-Stenhagen Buffer pH 3.5 t1/2 [3] | Teorell-Stenhagen Buffer pH 4.5 t1/2 [3] | Teorell-Stenhagen Buffer pH 5.5 t1/2 [3] | Teorell-Stenhagen Buffer pH 6.5 t1/2 [3] | Teorell-Stenhagen Buffer pH 7.5 t1/2 [3] | Teorell-Stenhagen Buffer pH 8.5 t1/2 [3] | Plasma stability Human t1/2 [4] | solubility in phosphate buffered saline [5] | Solubility (μM) in PBS 7.4 [5] | Solubility (μM) in T-S 7.5 [5] | HLM CLint [2, 9] | HLM t1/2 [2, 9] | stability in liver microsome extract [2] | SGF t1/2 [6] | SGF No Pepsin t1/2 [6] | also measured
1 | C[C@]12CC[C@H]3[C@@H](CCC4=CC(=O)CC[C@@]43C)[C@@H]1CC[C@@H]2O [Testosterone, testosterone, reference compound] | 87% | 73% |  |  |  |  |  |  |  |  |  |  |  |  |  |  |  |  |  |  | microsomal CLint at 1 μM ([1]; human, hepatic S9 fraction, 1 μM, protein 1.25 mg/mL, pH 7.4, 37° C, NADPH, UDPGA, PAPS): 47 µL/min/mg; half-life at 1 μM ([1]; human, hepatic S9 fraction, 1 μM, protein 1.25 mg/mL, pH 7.4, 37° C, NADPH, UDPGA, PAPS, read-out: Human S9 t1/2): 0.483 h; half-life ([1]; human, hepatic S9 fraction, read-out: half-life of degradation in S9 fraction): ~0.483 h; microsomal CLint at 1 μM ([2]; human, liver microsomes, 1 μM, microsomal protein 1 mg/mL, pH 7.4, 37° C., read-out: HLM CLint): 69 µL/min/mg; half-life at 1 μM ([2]; human, liver microsomes, 1 μM, microsomal protein 1 mg/mL, pH 7.4, 37° C., read-out: HLM t1/2): 0.167 h
2 | CBD difluoromethyl ether | 31% | 26% | 3.2 µL/min/mg | 2.88 h | about 3 hours | 10 h | 14 h | 11 h | 11 h | 11 h | 8 h | >6.67 h | good solubility | 7.0 µM | 9.7 µM | 9.0 µL/min/mg | 1.28 h | relatively stable | >6.67 h | >6.67 h | SIF t1/2 [6]: >6.67 h; SIF No Pancreatin t1/2 [6]: >6.67 h
3 | C=C(C)[C@@H]1CCC(C)=C[C@H]1c1c(O)cc(CCCCC)cc1O [CBD, cannabidiol, reference compound] |  |  |  |  |  |  |  |  |  |  |  |  |  |  |  |  |  |  |  |  | CBD cyclized to mixture of Δ8-THC and Δ9-THC ([6]; in about 60 minutes, comparison in the SGF/SIF stability study): greater than 85%; patients showing somnolence [7]: greater than 44%
4 | C=C(C)[C@@H]1CCC(C)=C[C@H]1c1c(O)cc(CCCCC)cc1OC [CBD Methyl Ether, CBD methyl ether] | 21% | 26% | 1.9 µL/min/mg | 4.77 h | about 5 hours | >72 h | >72 h | >72 h | >72 h | >72 h | >72 h | >6.67 h | good solubility | 8.4 µM (≈ 2.76 µg/mL) | 22 µM (≈ 7.23 µg/mL) | 8.7 µL/min/mg | 1.33 h | relatively stable | >6.67 h | >6.67 h | half-life of de-etherification in buffers at different pH's ([3]; Teorell-Stenhagen buffer pH 3.5-8.5): greater than 72 hours; SIF t1/2 [6]: >6.67 h; SIF No Pancreatin t1/2 [6]: >6.67 h
